Key:
human keratinocytes [1] = experiment: UVB light protection: PGE2 release from UVB-irradiated in vitro cultivated human keratinocytes, ELISA (UVB-PGE2); format: cell-based; details: positive control aspirin at 0.03%, control with UV = 100
Experimental: (§1) Cell Protection Effect Against UVB on In Vitro Cultivated Human Keratinocytes
(§2) Method: To carry out the tests, a defined medium (DMEM), which comprises 10% fetal calf serum, was inoculated with the keratinocytes and the plant extract (diluted with saline solution) was added 72 hours after inoculation.
(§3) The keratinocytes were then irradiated with a UVB dose (30 mJ/cm^2-tubes: DUKE GL40E).
Following further incubation for 1 day at 37° C. and at 5% CO2, the LDH and the PGE2 content in the supernatant was determined. […] The content of PGE2 was determined using an ELISA test (ELISA kit from Roche).
UVB-PGE2 prostaglandins E2 determined using an ELISA test (ELISA kit from Roche).

human keratinocytes [2] = experiment: UVB light protection: LDH release from UVB-irradiated in vitro cultivated human keratinocytes (UVB-LDH); format: cell-based; details: positive control aspirin at 0.03%, control with UV = 100
Text: Antiinflammatory Properties In Vitro-UVB Light Protection (UVB-LDH and UVB-PGE2)
as §1
This membrane stress is indicated by the release of the cytoplasm enzyme lactate dehydrogenase (LDH). The effect of UVB radiation was investigated on keratinocytes in vitro by determining the release of the cytoplasm enzyme LDH (lactate dehydrogenase). This enzyme serves as a marker for cell damage.
as §2, §3
Following further incubation for 1 day at 37° C. and at 5% CO2, the LDH and the PGE2 content in the supernatant was determined. The content of LDH (lactate dehydrogenase) was determined by means of an enzyme reaction (kit used to investigate the LDH content from Roche). The content of PGE2 was determined using an ELISA test (ELISA kit from Roche). Following trypsin treatment, the cells were centrifuged and counted.
UVB-LDH LDH or lactate dehydrogenase determination by means of an enzyme reaction

CC(=O)Oc1ccccc1C(=O)O [aspirin]
PGE2 release (% of UV control) (human keratinocytes [1]; Table 4): -6% | PGE2 release (% of UV control) (human keratinocytes [1]; Table 6): 0% | LDH release (% of UV control) (human keratinocytes [2]; Table 4): 15% | LDH release (% of UV control) (human keratinocytes [2]; Table 6): 0%

From patent US11234918B2, “Methods for botanical and/or algae extraction” (BASF CORPORATION, priority 2012, dated 2022)
